From patent US20150174202A1, “Methods and Compositions for Modulating Beta Cell Proliferation” (The Board of Trustees of the Leland Stanford Junior …, priority 2011, published 2015) come the findings set out here.

Entries after “also recorded” stand apart in the source; their conditions may differ.

For one series, the system named is EZH2. The experiment in a line: EZH2/EZH1 mRNA in cultured human islets (real-time RT-PCR). Format: cell-based. To be noted: PDGF-AA 50 ng/ml, 2 days. The method, then: Total RNA from freshly isolated or cultured islets after indicated treatments were purified using the Absolutely RNA miniprep purification kit (Stratagene) according to the manufacturer's instructions. RNA concentration was measured with a RiboGreen RNA quantification assay (Invitrogen). One-step quantitative RT-PCR was performed and analysed using an ABI Prism 7300 detection system (Applied Biosystems) with TaqMan one-step RTPCR Master Mix Reagents and appropriate amounts (10-100 ng) of islet total RNA as the template. We calculated the ratio of mRNA for the gene of interest to the amount of internal control mRNA of peptidylprolyl isomerase A (cyclophilin A, PPIA), and then normalized the ratio for each gene to its median. For islet studies, human islets were isolated either at Pittsburgh University Medical Center or the University of Alabama, Birmingham. Eight independent human islet preparations from juvenile donors at the age of 8 months, 1.0, 1.5, 2, 3, 4, 5 and 6 years, and three adult islet preparations from donors at the age of 39, 48 and 56 years were used in this study. After isolation, fresh islets were hand-picked and transferred to RPMI-1640 medium supplemented with 0.5% FBS, 0.2% BSA and 2% penicillin/streptomycin for an overnight recovery before experiments. […] To detect in vitro human islet β-cell proliferation stimulated by PDGF-AA, human islets were exposed to 50 μM BrdU for 24 h. Afterwards, human islets were processed in a similar way as in mouse islet studies for immunostaining of insulin, glucagon, PDX1 and BrdU. β-Cell proliferation rate was determined by quantifying percentage of insulin+ cells with BrdU+. More than 50 islets per group were counted for determining cultured human islet β-cell proliferation rate.
A general note: Quantitative PCR measures a nucleic acid by following its amplification.

Another series relates to human islet β-cells. As to the kind of experiment: In vitro human islet β-cell proliferation (BrdU incorporation). The class given is cell-based. Conditions: PDGF-AA 50 ng/ml, 2 days. The source says:
For islet studies, human islets were isolated either at Pittsburgh University Medical Center or the University of Alabama, Birmingham. Eight independent human islet preparations from juvenile donors at the age of 8 months, 1.0, 1.5, 2, 3, 4, 5 and 6 years, and three adult islet preparations from donors at the age of 39, 48 and 56 years were used in this study. After isolation, fresh islets were hand-picked and transferred to RPMI-1640 medium supplemented with 0.5% FBS, 0.2% BSA and 2% penicillin/streptomycin for an overnight recovery before experiments. […] To detect in vitro human islet β-cell proliferation stimulated by PDGF-AA, human islets were exposed to 50 μM BrdU for 24 h. Afterwards, human islets were processed in a similar way as in mouse islet studies for immunostaining of insulin, glucagon, PDX1 and BrdU. β-Cell proliferation rate was determined by quantifying percentage of insulin+ cells with BrdU+. More than 50 islets per group were counted for determining cultured human islet β-cell proliferation rate.

The next series concerns human EZH2 locus. The experiment in a line: EZH2 locus ChIP analysis with anti-E2F1 antibody in human juvenile islets. The class given is cell-based. Conditions: juvenile human islets exposed to PDGF-AA. The method, then: ChIPs were performed using a chromatin immunoprecipitation kit from Millipore. Briefly, freshly isolated mouse pancreatic islets or cultured human islets after the indicated treatments were pooled, and fixed with 2% formaldehyde for cross-linking for 20 min at room temperature (25° C.). After washing, islets were dissolved in SDS lysis buffer containing a proteinase inhibitor cocktail followed by sonication to shear the chromatin. Precleared chromatin from 150 to 300 islets was used for each ChIP sample with incubation of 1 to 5 μg of the appropriate antibodies at 4° C. overnight. The antibodies used in the ChIP assays included mouse anti-E2F1 (Millipore), rabbit anti-E2F4 (Santa Cruz Biotechnologies), rabbit or mouse polyclonal IgG (Millipore). […] After measurement of DNA concentration by PicoGreen DNA assay (Invitrogen), equivalent amounts of chromatin DNA from every sample was quantified by real-time qPCR in ABI Prism 7300 detection system (Applied Biosystems). […] Afterwards, human islets were processed in a similar way as in mouse islet studies for immunostaining of insulin, glucagon, PDX1 and BrdU. β-Cell proliferation rate was determined by quantifying percentage of insulin+ cells with BrdU+. More than 50 islets per group were counted for determining cultured human islet β-cell proliferation rate.

A short description of series [1]: Serum PDGF-AA by ELISA in NOD-scid mice with osmotic pump. The class given is in vivo, mouse. Conditions: control NOD-scid mice, subcutaneous osmotic pump primed with 4 μg PDGF-AA. The source says: Exposure of islets from young human donors to purified PDGF-AA stimulates ERK-dependent signaling pathways culminating in enhanced β-cell proliferation. However, these studies have not yet shown if PDGF-AA activation is sufficient to drive regeneration of functional β-cell mass in vivo. To assess this question, equivalent numbers of size-matched islets from young (ages 1-10 years) and control adult donors (age >20 years) were transplanted into NOD-scid mice.
In general terms: In an ELISA, binding on a coated surface is turned into a signal by an enzyme label.

Consider “PDGF-AA: recombinant human PDGF-AA, a homodimer of PDGF alpha polypeptides”, for which the “EZH2 mRNA levels” value in the series on EZH2 (adult human islets) is listed as “not induced”; in the series with EZH2 (juvenile human islets), “increased”. In addition, in the series with human islet β-cells (adult human islets), the β-cell proliferation entry is given as “did not alter”. Also, in the series with human islet β-cells (juvenile human islets), the “β-cell BrdU incorporation compared to vehicle-exposed controls” value is given as “sixfold increase”. Also, the “identity of proliferating BrdU+ cells stimulated by PDGF-AA” value with human islet β-cells (juvenile human islets, confocal microscopy) is given as “predominantly β-cells; also recorded: majority of PDGF-AA stimulated proliferating islet cells were PDX1+cells”. Also, the “association of E2F1 with the human EZH2 locus (ChIP)” value in the series with human EZH2 locus is recorded as “stimulated association of E2F1”. The “serum PDGF-AA levels” value in series [1] is given as “Increased”.
